Series [1] deals with N27-A cells. Conditions: for LDH release (%): Fig. 2b, MPP+, CQ 100 µM, 4A7C-301 1 µM; for MPP+-induced cytotoxicity (in words): N27-A and MN9D cells, dose-dependent. As to the method: SK-N-BE(2)C human neuroblastoma, BV2 mouse microglia (ATCC), HeLa and MN9D cell lines were cultured in Dulbecco’s Modified Eagle Medium (DMEM) supplemented with 10% fetal bovine serum (FBS) and 100 U /ml penicillin and 100 μg /ml streptomycin. The murine MN9D dopaminergic cell line was kindly provided by Drs. Michael Zigmond and Juliann Jaumotte from the University of Pittsburgh. The N27-A rat dopaminergic cell line was kindly provided by Dr. Curt Freed from the University of Colorado School of Medicine. […] For transactivity assay, SK-N-BE(2)C and N27-A cell lines were transfected with pCMV-fNurr1, pGAL-Nurr1(LBD), pGAL-Nor1(LBD) or pGAL-Nur77(LBD) and reporter construct (p4xNL3-Luc for fNurr1 or p8xUAS-Luc for LBD constructs). pRSV-β-gal was co-transfected as an internal control. Cells were lysed in a lysis buffer (25 mM Tris-phosphate (pH 7.8), 2 mM DTT, 2 mM DCTA (1,2-diaminocyclohexane-N,N,N′,N′-tetraacetic acid), 10% glycerol, and 1% Triton X-100) 24 h after transfection, followed by adding firefly luciferase substrate for luminescence detection measured by a luminometer plate reader (SpectraMax®; Molecular device). Nurr1 transactivity was normalized to β-galactosidase activity. […] For Nurr1 stability determination, MN9D cells were incubated with MPP^+ (0.5 mM) for 2, 4, 8, 16, 24, and 32 h, or were transduced with lentivirus expressing GFP only or αSyn (wild-type or A53T) then harvested 24, 48 and 72 h after transduction. For autophagolysosome (APL) formation assay, HeLa and N27-A cells were transfected with mRFP-GFP-LC3 (Addgene) using Lipofectamine 2000 (Invitrogen). The medium was changed with starvation medium (Earle’s Balanced Salt Solution; EBSS) 24 h after transfection for autophagy induction.
Cells were transfected with Nurr1 subcloned into pcDNA3.1 vector[23] for Nurr1 overexpression (OE). […] Nurr1 OE or KD by transfection was analyzed by Western blot.
Cellular oxidative stress was detected using the DCFDA Cellular ROS Assay Kit (Abcam) according to the manufacturer’s protocol. Briefly, cells seeded in black clear bottom 96 well plate were stained with DCFDA solution (20 µM) for 45 min at 37 °C. […] Cytotoxicity was determined by measuring lactate dehydrogenase (LDH) release into the culture medium using a LDH cytotoxicity detection kit (Roche)[33]. Absorbance was measured at 490 nm with a microplate reader and cytotoxicity was calculated as a percentage (%) relative to 1% TritonX-100 control. Cell viability was determined using 3-(4,5-dimethylthiazol-2-yl)-2,5-diphenyltetrazolium bromide (MTT) as previously described. Briefly, cells were incubated with 5 mg/ml of MTT (Sigma-Aldrich) solution for 3.5 h at 37 °C. MTT formazan crystals were dissolved in 10 times the volume of MTT solvent (4 mM HCl and 0.1% Nonidet P-40 in isopropanol) and the absorbance from the generated blue formazan was measured at 570 nm after 15 min incubation at room temperature. Cell viability was calculated as a percentage (%) of MTT reduction relative to vehicle control.
(In general: Release of lactate dehydrogenase indicates damage to the cell membrane.)

Series [2] has as its system N27-A cells. Put plainly: Cellular oxidative stress, DCFDA ROS assay, N27-A cells. Conditions: for MPP+-induced ROS levels (in words): CQ 100 µM, 4A7C-301 1 µM; for ROS intensity (fold of control): Fig. S1i, with MPP+, replicates. It is filed as cell-based, rat.
The subject of series [3] is AAV-αSyn-induced male mice. Kind of series: Cylinder test, AAV-αSyn-induced PD model mice. It is filed as in vivo, mouse. The settings on record: αSynWT and αSynA53T mice; CQ 40, 4A7C-301 5 mg/kg/day i.p. The source says:
(§1) Adeno-associated viruses (AAVs) expressing GFP only or αSyn (wild-type or A53T) were kindly provided by Dr. Yoon Seong Kim from the University of Central Florida. Recombinant AAV vectors were produced using modified pAAV-IRES-hrGFP (Agilent) to express wild-type and mutant human αSyn under control of the CMV promoter. Viral particles (AAV2) were produced at the University of Iowa Viral Vector Core according to standard operating procedures (https://medicine.uiowa.edu/vectorcore/). […] AAV vectors were delivered into the substantia nigra unilaterally by stereotaxic surgery.
Mice were placed in a transparent plastic cylinder (15.5 cm high, 12.7 cm diameter) with a mirror behind it. Spontaneous activity was recorded and measured as counting the number of rearing events for 3 min session. A rear was considered only when the mouse touched the wall of the cylinder with its forelimb paws while standing on its hindlimbs (vertical movement) to count meaningful physiological movements.

Series [4] has as its system AAV-αSyn-induced male mice. Kind of series: Rotarod, AAV-αSyn-induced PD model mice. It is filed as in vivo, mouse. The settings on record: αSynWT and αSynA53T mice; CQ 40, 4A7C-301 5 mg/kg/day i.p.
From the text: as §1
Mice were pre-trained on an automated 5-lane rotarod unit (10 rpm, 3 min) for 2 days and the baseline was measured (10 rpm, 90 sec) before the rotarod test (3 days before the MPTP injection or the first rotarod test at week 2). Rotarod measurements were performed using an accelerating protocol, accelerated smoothly from 2 to 30 rpm for 5 min. Time on the rotating rod was measured automatically by placing a trip switch under the floor beneath the rotating drum.

The subject of series [5] is AAV-αSyn-induced male mice. Kind of series: Pole test, AAV-αSyn-induced PD model mice. It is filed as in vivo, mouse. The settings on record: αSynWT and αSynA53T mice; CQ 40, 4A7C-301 5 mg/kg/day i.p.
From the text: as §1
Mice were trained to descend a vertical metal rod wrapped with rough tape (80 cm high, 12 mm diameter) once per day for 2 days, and then the baseline was measured before the pole test (3 days before the MPTP injection or the first pole test at week 2). Mice were placed head-upward on the pole and total descent time was recorded.

Series [6] has as its system AAV-αSyn-induced male mice. Kind of series: pS129 αSyn+ cells in SNpc, AAV-αSyn-induced mice. It is filed as in vivo, mouse.
From the text: as §1
Images were acquired using a KEYENCE microscope and quantified as the number or optical density of immunoreactive cells using ImageJ software.
The numbers of TH^+ DA neurons, NeuN^+ neurons, pS129 αSyn^+ cells in the SN and Iba-1^+ microglia in the SN and striatum were stereologically counted in six coronal sections (30 µm thickness) taken every 6th section (180 µm intervals) for each brain. The boundaries of the SN and striatum were delimited at low magnification (4X) to estimate each total area. Immunoreactive cells were counted with images taken at high magnification (×40) by a single blinded investigator. The group mean of the total number of immunoreactive cells from each brain was transformed as percentage of the number in the control group (%). For AAV-αSyn-induced mice, the group mean of the total number of cells in the ipsilateral side was transformed as a percentage of that observed in the contralateral side.

“And” between values parts separate entries of the source, which are not always exact repeats. Equal values may be shown once. Read-outs that look alike come from different tables or passages of the source.

`CCN(CC)CCCC(C)Nc1ccnc2cc(Cl)ccc12` (centres unmarked) [CQ, chloroquine]: the “LDH release (%)” value with N27-A cells [1] (Control) was 38.0191% and 38.0584% and 38.4906% and 38.2156%; in the series with N27-A cells [1] (Nurr1 KD), 55.7041% and 55.6609% and 55.7395% and 55.7788%; with N27-A cells [1] (Nurr1 OE), 24% and 23.9568% and 23.9529% and 23.9254%. Moreover, the “MPP+-induced cytotoxicity (in words)” value in the series on N27-A cells [1] is “significantly decreased”. In addition, in the series with N27-A cells [2], the “MPP+-induced ROS levels (in words)” value is listed as “significantly reduced”. For the same compound, the “motor deficits, cylinder test (rearing) (in words)” value in series [3] is on record as “partial recovery”. The “motor deficits, rotarod (latency to fall) (in words)” value in series [4] was “partial recovery”. Moreover, the “motor deficits, pole test (in words)” value in series [5] was “partial recovery”. In addition, the “phosphorylated αSyn (αSynS129) in SN (in words)” value in series [6] (αSynWT-mice) is reported as “significantly diminished”.
With `CCN1CCN(c2cc(N3CCN(CC)CC3)nc(NCCNc3ccnc4cc(Cl)ccc34)n2)CC1` [4A7C-301, N^1-(4,6-bis(4-ethylpiperazin-1-yl)pyrimidin-2-yl)-N^2-(7-chloroquinolin-4-yl)ethane-1,2-diamine], the “LDH release (%)” value in the series with N27-A cells [1] (Control) was 36.8915% and 36.4082% and 36.6047% and 36.8443%; in the series with N27-A cells [1] (Nurr1 KD), 55.7866% and 55.7395% and 55.4251% and 55.8102%; with N27-A cells [1] (Nurr1 OE), 22.7388% and 23.725% and 22.6956% and 22.8802%. In the series with N27-A cells [1], the “MPP+-induced cytotoxicity (in words)” value is given as “significantly decreased”. The “concentration of maximal efficiency, times lower than CQ” value in the series with N27-A cells [1] (N27-A cells, MPP+-induced cytotoxicity) is ~ 20 times. Also, the “MPP+-induced ROS levels (in words)” value in the series on N27-A cells [2] is “significantly reduced”. Moreover, the “ROS intensity (fold of control)” value was 1.457 fold of control and 1.389 fold of control and 1.394 fold of control in the series with N27-A cells [2] (Control cells); 2.059 fold of control and 2.042 fold of control and 2.017 fold of control in the series on N27-A cells [2] (Nurr1 KD cells); 0.87 fold of control and 0.894 fold of control and 0.877 fold of control in the series with N27-A cells [2] (Nurr1 OE cells). Moreover, the “motor deficits, cylinder test (rearing) (in words)” value in series [3] is “improved motor deficits”. Besides, the “motor deficits, rotarod (latency to fall) (in words)” value in series [4] is “improved motor deficits”. The “motor deficits, pole test (in words)” value in series [5] is reported as “improved motor deficits”. Further, the “phosphorylated αSyn (αSynS129) in SN (in words)” value in series [6] (αSynA53T-mice) was “significantly reduced”; in series [6] (αSynWT-mice) it was “significantly diminished”.
